Numbered stars: 1 amine (or outer) side, 2 acyl side, 3 side chain; on linkers, the order of the positions; unused ones are H or OH. Bridge positions count the residues as written; N and C are the ends. Side chains are listed from the residue outwards. Peptide text beside a SMILES is read from it. * marks the point of attachment. C20 diacid = O=C(O)CCCCCCCCCCCCCCCCCCC(=O)*; γGlu = O=C(O)[C@H](CCC(=O)[*:2])N[*:1]; AEEA = NCCOCCOCC(=O)O
Key:
[1] = biological target: T1, human amylin receptor (amylin 3(a) receptor: human calcitonin receptor + RAMP-3) (Homo sapiens, UniProt O60896+P30988); assay: Assay (II)a functional assay, human amylin receptor (CRE luciferase, BHK cells); assay type: cell-based; settings: for EC50: functional assay, human amylin receptor, read-out: hAmylin-R funct. EC50
T1 construct: expressed in transfected cells
T1 sequence (P30988 25-474): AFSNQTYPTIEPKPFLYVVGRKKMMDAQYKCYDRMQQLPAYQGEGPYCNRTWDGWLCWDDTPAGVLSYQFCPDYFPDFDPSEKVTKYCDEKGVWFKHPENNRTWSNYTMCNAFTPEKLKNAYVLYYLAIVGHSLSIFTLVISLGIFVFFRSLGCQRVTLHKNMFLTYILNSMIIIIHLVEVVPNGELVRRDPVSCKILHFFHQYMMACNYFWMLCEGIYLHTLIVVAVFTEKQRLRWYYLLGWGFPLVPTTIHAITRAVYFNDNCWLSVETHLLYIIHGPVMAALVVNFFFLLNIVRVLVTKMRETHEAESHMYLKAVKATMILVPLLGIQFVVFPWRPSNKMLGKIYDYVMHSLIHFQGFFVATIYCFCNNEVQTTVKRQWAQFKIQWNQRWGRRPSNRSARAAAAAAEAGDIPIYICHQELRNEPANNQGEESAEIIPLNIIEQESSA
T1 sequence (O60896 24-148 partner): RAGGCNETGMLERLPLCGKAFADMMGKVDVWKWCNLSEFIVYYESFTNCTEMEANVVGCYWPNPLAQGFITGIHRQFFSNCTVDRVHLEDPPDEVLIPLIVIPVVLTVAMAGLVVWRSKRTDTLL

[2] = biological target: T2, human calcitonin receptor (Homo sapiens, UniProt P30988); assay: Assay (II)a functional assay, human calcitonin receptor (CRE luciferase, BHK cells);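 also: luminescence from a CRE-driven luciferase reporter, read by single photon counting after cells were exposed to test samples for 3 h at 37 °C under 5% CO2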; assay type: cell-based; settings: read-out: hCTR funct. EC50
T2 construct: expressed in transfected cells
T2 sequence (P30988 25-474): T1 sequence (P30988 25-474)

[3] = Assay (IV) determination of solubility; assay type: physicochemical; settings: for Solubility pH 6.5 Concentration (μM): pH 6.5, 18 hours room temperature; for Solubility pH 7.0 Concentration (μM): pH 7.0, 18 hours room temperature; for Solubility pH 7.5 Concentration (μM): pH 7.5, 18 hours room temperature; for Solubility pH 8.0 Concentration (μM): pH 8.0, 18 hours room temperature
Protocol: Assay (IV)—Determination of Solubility
The polypeptide was dissolved in water at ˜500 nmol/ml and mixed 1:1 with a series of buffers (100 mM glycylglycine pH 3.0, 100 mM glycylglycine pH 4.0, 100 mM glycylglycine pH 5.0, 100 mM bistrispropane pH 6.0, 100 mM bistrispropane pH 6.5, 100 mM bistrispropane pH 7.0, 100 mM bistrispropane pH 7.5, 100 mM bistrispropane pH 8.0). After 18 hours at room temperature the samples were centrifuged and the polypeptide concentration determined by UPLC.

[4] = biological target: T3, human amylin receptor (Homo sapiens, UniProt O60896+P30988); assay: Assay (V) binding to the human amylin receptor (SPA, 125I-rat amylin); settings: human amylin receptor membranes, SPA; read-out: hAmylin-R bind IC50
T3 construct: expressed in transfected cells
T3 sequence (P30988 25-474): T1 sequence (P30988 25-474)
T3 sequence (O60896 24-148 partner): T1 sequence (O60896 24-148 partner)
Outline: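 SPA competition binding on membranes from Amylin 3(a)/CRE-luc cells, 35 ng/μL membranes with 0.05 mg/well beads. Buffer 50 mM Hepes pH 7.4, 1 mM CaCl2, 5 mM MgCl2, 0.1% OA, 0.02% Tween20. IC50 from one-site competition fit as affinity measure.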

[5] = biological target: T2, human calcitonin receptor; assay: Assay (VII) binding to the human calcitonin receptor (SPA, 125I-Calcitonin); settings: read-out: hCTR bind IC50;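 also: cell membranes coupled to SPA beads, competitive displacement read by scintillation counting, IC50 derived from a one-site competition fit as a measure of receptor affinity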

EC50 [1]	EC50 [2]	Solubility pH 6.5 Concentration (μM) [3]	Solubility pH 7.0 Concentration (μM) [3]	Solubility pH 7.5 Concentration (μM) [3]	Solubility pH 8.0 Concentration (μM) [3]	IC50 [4]	IC50 [5]	Ratio hCT/hAmylin funct. ([1]; Table 6, human functional selectivity (hCTR EC50 / hAmylin-R EC50))	Ratio hCT/hAmylin funct. ([1]; Table 6a, human functional selectivity (hCTR EC50 / hAmylin-R EC50), at least 5)	Ratio hCT/hAmylin funct. ([1]; Table 6j, hCTR funct. EC50 / hAmylin-R funct. EC50)	Ratio hCT/hAmylin funct. ([1]; Table 6k, hCTR funct. EC50 / hAmylin-R funct. EC50)	Compound
0.047 nM	1.03 nM	≧200 μM	≧200 μM	96 μM	48 μM	0.088 nM	9.63 nM					CC[C@H](C)[C@H](NC(=O)[C@H](C)NC(=O)CNC(=O)[C@H](Cc1ccccc1)NC(=O)[C@H](CC(N)=O)NC(=O)[C@@H]1CCCN1C(=O)[C@H](CO)NC(=O)[C@H](CO)NC(=O)[C@H](Cc1c[nH]cn1)NC(=O)[C@H](CCCNC(=N)N)NC(=O)[C@H](CC(C)C)NC(=O)[C@H](Cc1ccccc1)NC(=O)[C@H](CC(N)=O)NC(=O)[C@H](C)NC(=O)[C@H](CC(C)C)NC(=O)[C@H](CCCNC(=N)N)NC(=O)[C@H](CCC(N)=O)NC(=O)[C@@H](NC(=O)[C@H](C)NC(=O)[C@@H]1CSSC[C@H](NC(=O)[C@@H](N)CCCCNC(=O)COCCOCCNC(=O)CC[C@H](NC(=O)CCCCCCCCCCCCCCCCCCC(=O)O)C(=O)O)C(=O)N[C@@H](CC(N)=O)C(=O)N[C@@H]([C@@H](C)O)C(=O)N[C@@H](C)C(=O)N[C@@H]([C@@H](C)O)C(=O)N1)[C@@H](C)O)C(=O)N1CCC[C@H]1C(=O)N[C@@H](CO)C(=O)N[C@@H](CO)C(=O)N[C@H](C(=O)N[C@@H](CC(N)=O)C(=O)N[C@H](C(=O)NCC(=O)N1CCC[C@H]1C(=O)N[C@@H](Cc1c[nH]cn1)C(=O)N[C@H](C(=O)N[C@@H](Cc1ccc(O)cc1)C(N)=O)[C@@H](C)O)C(C)C)[C@@H](C)O [Example 58] (H-K([AEEA-γGlu-C20 diacid])CNTATCATQRLANFLRHSSPNFGAIPSSTNVGPHTY-NH2; disulfide 2-7)
		≧200 μM	≧200 μM	131 μM	52 μM							CC[C@H](C)[C@H](NC(=O)[C@H](C)NC(=O)CNC(=O)[C@H](Cc1ccccc1)NC(=O)[C@H](CC(N)=O)NC(=O)[C@@H]1CCCN1C(=O)[C@H](CO)NC(=O)[C@H](CO)NC(=O)[C@H](Cc1c[nH]cn1)NC(=O)[C@H](CCCNC(=N)N)NC(=O)[C@H](CC(C)C)NC(=O)[C@H](Cc1ccccc1)NC(=O)[C@H](Cc1c[nH]cn1)NC(=O)[C@H](C)NC(=O)[C@H](CC(C)C)NC(=O)[C@H](CCCNC(=N)N)NC(=O)[C@H](CCC(N)=O)NC(=O)[C@@H](NC(=O)[C@H](C)NC(=O)[C@@H]1CSSC[C@H](NC(=O)[C@@H](N)CCCCNC(=O)CC[C@H](NC(=O)CCCCCCCCCCCCCCCCCCC(=O)O)C(=O)O)C(=O)N[C@@H](CC(N)=O)C(=O)N[C@@H]([C@@H](C)O)C(=O)N[C@@H](C)C(=O)N[C@@H]([C@@H](C)O)C(=O)N1)[C@@H](C)O)C(=O)N1CCC[C@H]1C(=O)N[C@@H](CO)C(=O)N[C@@H](CO)C(=O)N[C@H](C(=O)N[C@@H](CC(N)=O)C(=O)N[C@H](C(=O)NCC(=O)N[C@@H](CO)C(=O)N[C@@H](Cc1c[nH]cn1)C(=O)N[C@H](C(=O)N[C@@H](Cc1ccc(O)cc1)C(N)=O)[C@@H](C)O)C(C)C)[C@@H](C)O [Example 66] (H-K([γGlu-C20 diacid])CNTATCATQRLAHFLRHSSPNFGAIPSSTNVGSHTY-NH2; disulfide 2-7; N-terminus assumed)
0.145 nM	5.4 nM	≧200 μM	≧200 μM	147 μM	59 μM	0.428 nM	50.7 nM					CC[C@H](C)[C@H](NC(=O)[C@H](C)NC(=O)CNC(=O)[C@H](Cc1ccccc1)NC(=O)[C@H](CC(N)=O)NC(=O)[C@@H]1CCCN1C(=O)[C@H](CO)NC(=O)[C@H](CO)NC(=O)[C@H](Cc1c[nH]cn1)NC(=O)[C@H](CCCNC(=N)N)NC(=O)[C@H](CC(C)C)NC(=O)[C@H](Cc1ccccc1)NC(=O)[C@H](CC(N)=O)NC(=O)[C@H](C)NC(=O)[C@H](CC(C)C)NC(=O)[C@H](CCCNC(=N)N)NC(=O)[C@H](CCC(N)=O)NC(=O)[C@@H](NC(=O)[C@H](C)NC(=O)[C@@H]1CSSC[C@H](NC(=O)[C@@H](N)CCCCNC(=O)CC[C@H](NC(=O)CCCCCCCCCCCCCCCCCCC(=O)O)C(=O)O)C(=O)N[C@@H](CC(N)=O)C(=O)N[C@@H]([C@@H](C)O)C(=O)N[C@@H](C)C(=O)N[C@@H]([C@@H](C)O)C(=O)N1)[C@@H](C)O)C(=O)N1CCC[C@H]1C(=O)N[C@@H](CO)C(=O)N[C@@H](CO)C(=O)N[C@H](C(=O)N[C@@H](CC(N)=O)C(=O)N[C@H](C(=O)NCC(=O)N[C@@H](Cc1c[nH]cn1)C(=O)N[C@@H](CC(N)=O)C(=O)N[C@H](C(=O)N[C@@H](Cc1ccc(O)cc1)C(N)=O)[C@@H](C)O)C(C)C)[C@@H](C)O [Example 77]
		174 μM	182 μM	112 μM	32 μM			26.0	26.0	26.0	26.0	CC[C@H](C)[C@H](NC(=O)[C@H](C)NC(=O)CNC(=O)[C@H](Cc1ccccc1)NC(=O)[C@H](CC(N)=O)NC(=O)[C@@H]1CCCN1C(=O)[C@H](CO)NC(=O)[C@H](CO)NC(=O)[C@H](Cc1c[nH]cn1)NC(=O)[C@H](CCCNC(=N)N)NC(=O)[C@H](CC(C)C)NC(=O)[C@H](Cc1ccccc1)NC(=O)[C@H](CC(N)=O)NC(=O)[C@H](C)NC(=O)[C@H](CC(C)C)NC(=O)[C@H](CCCNC(=N)N)NC(=O)[C@H](CCC(N)=O)NC(=O)[C@@H](NC(=O)[C@H](C)NC(=O)[C@@H]1CSSC[C@H](NC(=O)[C@@H](N)CCCCNC(=O)CC[C@H](NC(=O)CC[C@H](NC(=O)CCCCCCCCCCCCCCCCCCC(=O)O)C(=O)O)C(=O)O)C(=O)N[C@@H](CC(N)=O)C(=O)N[C@@H]([C@@H](C)O)C(=O)N[C@@H](C)C(=O)N[C@@H]([C@@H](C)O)C(=O)N1)[C@@H](C)O)C(=O)N1CCC[C@H]1C(=O)N[C@@H](CO)C(=O)N[C@@H](CO)C(=O)N[C@H](C(=O)N1CCC[C@H]1C(=O)N[C@H](C(=O)NCC(=O)N1CCC[C@H]1C(=O)N[C@@H](CCCNC(=N)N)C(=O)N[C@H](C(=O)N[C@@H](Cc1ccc(O)cc1)C(N)=O)[C@@H](C)O)C(C)C)[C@@H](C)O [Example 119] (H-K([γGlu-γGlu-C20 diacid])CNTATCATQRLANFLRHSSPNFGAIPSSTPVGPRTY-NH2; disulfide 2-7 (inferred); N-terminus and C-terminus assumed)

Reference: patent US8575091B1, “Amylin analogues and pharmaceutical compositions thereof” (Novo Nordisk A/S, priority 2012, dated 2013)
